Data from ChEMBL document CHEMBL3991601, “The target landscape of clinical kinase drugs” (Science, 2017).
pKd: −log10 of the molar value. Calls of active or inactive are those of the source. Cut-off read from the data, not from the text of the source, for most assays here: actives have a measured Kd and inactives only a lower limit.

biological target: T1, EKC/KEOPS complex subunit TP53RK (Homo sapiens, UniProt Q96S44)
T1 sequence (Q96S44 whole entry): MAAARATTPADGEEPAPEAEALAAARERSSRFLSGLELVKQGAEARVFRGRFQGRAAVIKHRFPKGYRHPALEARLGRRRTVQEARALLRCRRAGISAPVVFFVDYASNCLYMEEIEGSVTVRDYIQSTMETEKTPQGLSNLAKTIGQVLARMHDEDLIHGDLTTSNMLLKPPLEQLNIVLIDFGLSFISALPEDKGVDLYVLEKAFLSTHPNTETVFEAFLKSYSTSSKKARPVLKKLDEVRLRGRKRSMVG
Note: in the data inactive means no Kd found up to 30 µM.

Compound	Kd
CNC(=O)c1ccc(C)c(-n2c(C)cc(OCc3ccc(F)cc3F)c(Br)c2=O)c1 [PH-797804]	> 30 µM (inactive)
C=CC(=O)N1CCC(Oc2cc3c(Nc4ccc(Cl)c(Cl)c4F)ncnc3cc2OC)CC1 [POZIOTINIB]	> 30 µM (inactive)
CNC(=O)c1cc(Oc2ccc(NC(=O)Nc3ccc(Cl)c(C(F)(F)F)c3)c(F)c2)ccn1 [REGORAFENIB]	> 30 µM (inactive)
CN(C)C(=O)c1cc2cnc(Nc3ccc(N4CCNCC4)cn3)nc2n1C1CCCC1 [RIBOCICLIB]	> 30 µM (inactive)

biological target: GTP-binding protein 4 (Homo sapiens, UniProt Q9BZE4)

Compound	Kd
CNC(=O)c1ccc(C)c(-n2c(C)cc(OCc3ccc(F)cc3F)c(Br)c2=O)c1 [PH-797804]	> 30 µM (inactive)
C=CC(=O)N1CCC(Oc2cc3c(Nc4ccc(Cl)c(Cl)c4F)ncnc3cc2OC)CC1 [POZIOTINIB]	> 30 µM (inactive)
CNC(=O)c1cc(Oc2ccc(NC(=O)Nc3ccc(Cl)c(C(F)(F)F)c3)c(F)c2)ccn1 [REGORAFENIB]	> 30 µM (inactive)
CN(C)C(=O)c1cc2cnc(Nc3ccc(N4CCNCC4)cn3)nc2n1C1CCCC1 [RIBOCICLIB]	> 30 µM (inactive)

biological target: Ephrin type-A receptor 5 (Homo sapiens, UniProt P54756)
Sequence (P54756 whole entry): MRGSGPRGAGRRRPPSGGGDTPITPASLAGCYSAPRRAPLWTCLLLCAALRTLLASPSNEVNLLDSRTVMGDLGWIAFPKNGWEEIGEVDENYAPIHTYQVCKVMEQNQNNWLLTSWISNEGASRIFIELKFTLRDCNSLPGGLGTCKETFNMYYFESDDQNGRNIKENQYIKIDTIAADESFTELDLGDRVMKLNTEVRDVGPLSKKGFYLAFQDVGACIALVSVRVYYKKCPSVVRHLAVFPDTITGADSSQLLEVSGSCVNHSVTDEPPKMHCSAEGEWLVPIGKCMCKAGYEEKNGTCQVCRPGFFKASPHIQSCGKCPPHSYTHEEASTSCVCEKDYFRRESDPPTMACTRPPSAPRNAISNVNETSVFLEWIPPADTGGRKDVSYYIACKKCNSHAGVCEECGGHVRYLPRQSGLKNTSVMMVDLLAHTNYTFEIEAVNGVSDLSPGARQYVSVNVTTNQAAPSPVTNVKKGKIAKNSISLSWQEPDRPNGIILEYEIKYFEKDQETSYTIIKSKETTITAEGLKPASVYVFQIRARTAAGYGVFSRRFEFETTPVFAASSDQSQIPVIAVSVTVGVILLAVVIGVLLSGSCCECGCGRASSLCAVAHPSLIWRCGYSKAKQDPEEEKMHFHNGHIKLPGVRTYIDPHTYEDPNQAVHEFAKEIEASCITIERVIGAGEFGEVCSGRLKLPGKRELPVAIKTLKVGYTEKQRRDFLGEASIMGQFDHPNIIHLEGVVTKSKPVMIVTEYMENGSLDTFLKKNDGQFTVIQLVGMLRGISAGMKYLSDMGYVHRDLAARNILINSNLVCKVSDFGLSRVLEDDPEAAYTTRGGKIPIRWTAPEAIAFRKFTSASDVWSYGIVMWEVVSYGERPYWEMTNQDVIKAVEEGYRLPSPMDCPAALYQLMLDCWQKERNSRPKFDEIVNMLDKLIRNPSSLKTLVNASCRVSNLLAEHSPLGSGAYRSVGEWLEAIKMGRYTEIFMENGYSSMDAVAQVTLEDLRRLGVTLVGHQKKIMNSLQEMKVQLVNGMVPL

Compound	Kd	pKd
CNC(=O)c1ccc(C)c(-n2c(C)cc(OCc3ccc(F)cc3F)c(Br)c2=O)c1 [PH-797804]	> 30 µM (inactive)	
C=CC(=O)N1CCC(Oc2cc3c(Nc4ccc(Cl)c(Cl)c4F)ncnc3cc2OC)CC1 [POZIOTINIB]	> 30 µM (inactive)	
CNC(=O)c1cc(Oc2ccc(NC(=O)Nc3ccc(Cl)c(C(F)(F)F)c3)c(F)c2)ccn1 [REGORAFENIB]		5.95
CN(C)C(=O)c1cc2cnc(Nc3ccc(N4CCNCC4)cn3)nc2n1C1CCCC1 [RIBOCICLIB]	> 30 µM (inactive)	

biological target: T2, Dual specificity mitogen-activated protein kinase kinase 5 (Homo sapiens, UniProt Q13163)
T2 sequence (Q13163 whole entry): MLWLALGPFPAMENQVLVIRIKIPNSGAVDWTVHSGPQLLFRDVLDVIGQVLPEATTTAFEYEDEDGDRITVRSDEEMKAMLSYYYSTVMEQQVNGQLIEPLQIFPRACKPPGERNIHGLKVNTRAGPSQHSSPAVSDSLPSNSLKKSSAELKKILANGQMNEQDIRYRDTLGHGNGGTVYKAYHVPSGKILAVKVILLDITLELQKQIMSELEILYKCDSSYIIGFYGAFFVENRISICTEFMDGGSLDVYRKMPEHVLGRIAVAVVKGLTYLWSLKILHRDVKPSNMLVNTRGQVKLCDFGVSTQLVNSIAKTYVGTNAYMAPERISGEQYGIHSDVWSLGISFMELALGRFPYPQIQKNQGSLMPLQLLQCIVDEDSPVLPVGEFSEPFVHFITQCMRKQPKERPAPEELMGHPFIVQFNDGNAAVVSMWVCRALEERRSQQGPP

Compound	Kd
CNC(=O)c1ccc(C)c(-n2c(C)cc(OCc3ccc(F)cc3F)c(Br)c2=O)c1 [PH-797804]	> 30 µM (inactive)
C=CC(=O)N1CCC(Oc2cc3c(Nc4ccc(Cl)c(Cl)c4F)ncnc3cc2OC)CC1 [POZIOTINIB]	> 30 µM (inactive)
CNC(=O)c1cc(Oc2ccc(NC(=O)Nc3ccc(Cl)c(C(F)(F)F)c3)c(F)c2)ccn1 [REGORAFENIB]	> 30 µM (inactive)
CN(C)C(=O)c1cc2cnc(Nc3ccc(N4CCNCC4)cn3)nc2n1C1CCCC1 [RIBOCICLIB]	> 30 µM (inactive)

biological target: T3, Serine/threonine-protein kinase 3 (Homo sapiens, UniProt Q13188)
T3 sequence (Q13188 whole entry): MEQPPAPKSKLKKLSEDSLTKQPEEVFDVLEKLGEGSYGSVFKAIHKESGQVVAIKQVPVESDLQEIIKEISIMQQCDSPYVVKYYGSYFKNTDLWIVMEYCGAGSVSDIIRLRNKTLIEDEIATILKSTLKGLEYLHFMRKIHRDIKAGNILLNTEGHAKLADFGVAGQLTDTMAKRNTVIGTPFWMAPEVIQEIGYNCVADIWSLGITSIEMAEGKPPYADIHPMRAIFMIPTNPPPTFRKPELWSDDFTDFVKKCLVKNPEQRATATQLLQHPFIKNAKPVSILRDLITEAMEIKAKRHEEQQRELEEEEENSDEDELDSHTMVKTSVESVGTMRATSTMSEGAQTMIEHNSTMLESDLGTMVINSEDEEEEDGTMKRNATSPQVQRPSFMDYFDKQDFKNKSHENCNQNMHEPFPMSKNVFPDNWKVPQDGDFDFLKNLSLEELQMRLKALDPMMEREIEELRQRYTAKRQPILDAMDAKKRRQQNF

Compound	Kd
CNC(=O)c1ccc(C)c(-n2c(C)cc(OCc3ccc(F)cc3F)c(Br)c2=O)c1 [PH-797804]	> 30 µM (inactive)
C=CC(=O)N1CCC(Oc2cc3c(Nc4ccc(Cl)c(Cl)c4F)ncnc3cc2OC)CC1 [POZIOTINIB]	> 30 µM (inactive)
CNC(=O)c1cc(Oc2ccc(NC(=O)Nc3ccc(Cl)c(C(F)(F)F)c3)c(F)c2)ccn1 [REGORAFENIB]	> 30 µM (inactive)
CN(C)C(=O)c1cc2cnc(Nc3ccc(N4CCNCC4)cn3)nc2n1C1CCCC1 [RIBOCICLIB]	> 30 µM (inactive)

biological target: T4, Serine/threonine-protein kinase ULK3 (Homo sapiens, UniProt Q6PHR2)
T4 sequence (Q6PHR2 whole entry): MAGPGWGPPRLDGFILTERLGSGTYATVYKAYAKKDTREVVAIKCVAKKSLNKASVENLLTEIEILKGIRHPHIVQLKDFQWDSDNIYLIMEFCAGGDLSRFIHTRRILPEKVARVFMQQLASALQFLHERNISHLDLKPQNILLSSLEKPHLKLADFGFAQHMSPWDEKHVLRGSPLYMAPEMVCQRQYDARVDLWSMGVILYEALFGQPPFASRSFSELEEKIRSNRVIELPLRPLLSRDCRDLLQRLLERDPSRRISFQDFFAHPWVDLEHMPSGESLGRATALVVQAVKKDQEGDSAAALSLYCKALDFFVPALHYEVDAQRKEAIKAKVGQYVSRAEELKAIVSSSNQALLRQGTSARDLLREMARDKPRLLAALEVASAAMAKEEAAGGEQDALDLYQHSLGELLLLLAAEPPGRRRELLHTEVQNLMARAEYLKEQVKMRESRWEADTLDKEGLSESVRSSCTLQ

Compound	Kd
CNC(=O)c1ccc(C)c(-n2c(C)cc(OCc3ccc(F)cc3F)c(Br)c2=O)c1 [PH-797804]	> 30 µM (inactive)
C=CC(=O)N1CCC(Oc2cc3c(Nc4ccc(Cl)c(Cl)c4F)ncnc3cc2OC)CC1 [POZIOTINIB]	> 30 µM (inactive)
CNC(=O)c1cc(Oc2ccc(NC(=O)Nc3ccc(Cl)c(C(F)(F)F)c3)c(F)c2)ccn1 [REGORAFENIB]	> 30 µM (inactive)
CN(C)C(=O)c1cc2cnc(Nc3ccc(N4CCNCC4)cn3)nc2n1C1CCCC1 [RIBOCICLIB]	> 30 µM (inactive)

biological target: T5, Serine/threonine-protein kinase Nek3 (Homo sapiens, UniProt P51956)
T5 sequence (P51956 whole entry): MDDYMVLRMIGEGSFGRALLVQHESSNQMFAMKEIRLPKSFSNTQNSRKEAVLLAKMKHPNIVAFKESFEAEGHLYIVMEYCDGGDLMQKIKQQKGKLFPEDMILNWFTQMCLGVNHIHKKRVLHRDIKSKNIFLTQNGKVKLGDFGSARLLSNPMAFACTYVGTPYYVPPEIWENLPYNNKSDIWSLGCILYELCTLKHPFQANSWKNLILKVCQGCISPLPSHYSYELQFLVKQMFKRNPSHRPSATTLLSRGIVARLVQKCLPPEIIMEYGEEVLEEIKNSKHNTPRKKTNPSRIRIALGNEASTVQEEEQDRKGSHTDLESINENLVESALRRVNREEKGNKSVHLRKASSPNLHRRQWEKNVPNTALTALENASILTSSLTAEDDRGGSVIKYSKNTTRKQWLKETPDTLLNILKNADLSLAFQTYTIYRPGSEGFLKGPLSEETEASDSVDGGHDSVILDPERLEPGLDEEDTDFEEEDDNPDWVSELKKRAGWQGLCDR

Compound	Kd
CNC(=O)c1ccc(C)c(-n2c(C)cc(OCc3ccc(F)cc3F)c(Br)c2=O)c1 [PH-797804]	> 30 µM (inactive)
C=CC(=O)N1CCC(Oc2cc3c(Nc4ccc(Cl)c(Cl)c4F)ncnc3cc2OC)CC1 [POZIOTINIB]	> 30 µM (inactive)
CNC(=O)c1cc(Oc2ccc(NC(=O)Nc3ccc(Cl)c(C(F)(F)F)c3)c(F)c2)ccn1 [REGORAFENIB]	> 30 µM (inactive)
CN(C)C(=O)c1cc2cnc(Nc3ccc(N4CCNCC4)cn3)nc2n1C1CCCC1 [RIBOCICLIB]	> 30 µM (inactive)

biological target: Tyrosine-protein kinase ABL2 (Homo sapiens, UniProt P42684)
Sequence (P42684 whole entry): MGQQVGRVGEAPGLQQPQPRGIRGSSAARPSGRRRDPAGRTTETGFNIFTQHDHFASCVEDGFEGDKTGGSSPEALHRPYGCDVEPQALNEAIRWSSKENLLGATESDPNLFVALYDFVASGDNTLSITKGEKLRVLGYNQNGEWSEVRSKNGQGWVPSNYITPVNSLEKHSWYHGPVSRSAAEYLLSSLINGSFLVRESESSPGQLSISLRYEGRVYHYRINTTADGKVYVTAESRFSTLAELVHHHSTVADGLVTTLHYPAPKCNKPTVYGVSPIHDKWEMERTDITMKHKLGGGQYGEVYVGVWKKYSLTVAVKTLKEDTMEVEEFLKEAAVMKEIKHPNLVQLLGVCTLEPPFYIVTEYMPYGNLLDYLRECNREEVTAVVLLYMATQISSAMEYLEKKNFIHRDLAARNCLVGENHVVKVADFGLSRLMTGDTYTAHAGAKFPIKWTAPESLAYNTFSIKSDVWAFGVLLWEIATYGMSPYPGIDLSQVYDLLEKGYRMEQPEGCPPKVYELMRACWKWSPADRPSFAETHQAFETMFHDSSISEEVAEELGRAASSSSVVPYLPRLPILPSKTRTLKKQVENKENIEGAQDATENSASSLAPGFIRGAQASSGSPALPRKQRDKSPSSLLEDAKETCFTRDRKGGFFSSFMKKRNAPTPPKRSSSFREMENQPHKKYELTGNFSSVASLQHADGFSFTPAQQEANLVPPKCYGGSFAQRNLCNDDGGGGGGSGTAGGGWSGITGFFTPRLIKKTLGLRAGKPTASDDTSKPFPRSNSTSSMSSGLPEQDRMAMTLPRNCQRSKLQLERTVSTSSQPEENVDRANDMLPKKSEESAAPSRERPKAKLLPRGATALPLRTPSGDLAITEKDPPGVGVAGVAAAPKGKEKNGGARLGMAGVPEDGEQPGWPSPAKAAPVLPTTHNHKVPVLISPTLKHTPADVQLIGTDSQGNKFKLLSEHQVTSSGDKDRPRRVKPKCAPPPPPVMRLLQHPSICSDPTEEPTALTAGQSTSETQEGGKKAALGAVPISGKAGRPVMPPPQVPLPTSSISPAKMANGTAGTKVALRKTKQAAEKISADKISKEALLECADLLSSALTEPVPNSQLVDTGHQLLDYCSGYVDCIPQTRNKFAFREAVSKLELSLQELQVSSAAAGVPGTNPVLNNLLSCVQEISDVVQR

Compound	Kd
CNC(=O)c1ccc(C)c(-n2c(C)cc(OCc3ccc(F)cc3F)c(Br)c2=O)c1 [PH-797804]	> 30 µM (inactive)
C=CC(=O)N1CCC(Oc2cc3c(Nc4ccc(Cl)c(Cl)c4F)ncnc3cc2OC)CC1 [POZIOTINIB]	> 30 µM (inactive)
CNC(=O)c1cc(Oc2ccc(NC(=O)Nc3ccc(Cl)c(C(F)(F)F)c3)c(F)c2)ccn1 [REGORAFENIB]	> 30 µM (inactive)
CN(C)C(=O)c1cc2cnc(Nc3ccc(N4CCNCC4)cn3)nc2n1C1CCCC1 [RIBOCICLIB]	> 30 µM (inactive)
